Results reported in ChEMBL document CHEMBL5705902, “Role of G Protein-Coupled Receptor Kinases 2 and 3 in μ-Opioid Receptor Desensitization and Internalization” (Mol Pharmacol, 2015).
Activity calls are given as the source filed them. The calls are words filed in the database; no cut-off is given here.

What was measured:
[1] = target: Mu-type opioid receptor (Rattus norvegicus) (UniProt P33535); test: Inhibition of MOPr desensitization in wistar rat LC neuron cells assessed as reduction in the DAMGO induced desensitization incubated for 15 mins in the presence of GSK650394; type: functional, cell-based
Chain of Mu-type opioid receptor (Rattus norvegicus) (P33535 whole entry): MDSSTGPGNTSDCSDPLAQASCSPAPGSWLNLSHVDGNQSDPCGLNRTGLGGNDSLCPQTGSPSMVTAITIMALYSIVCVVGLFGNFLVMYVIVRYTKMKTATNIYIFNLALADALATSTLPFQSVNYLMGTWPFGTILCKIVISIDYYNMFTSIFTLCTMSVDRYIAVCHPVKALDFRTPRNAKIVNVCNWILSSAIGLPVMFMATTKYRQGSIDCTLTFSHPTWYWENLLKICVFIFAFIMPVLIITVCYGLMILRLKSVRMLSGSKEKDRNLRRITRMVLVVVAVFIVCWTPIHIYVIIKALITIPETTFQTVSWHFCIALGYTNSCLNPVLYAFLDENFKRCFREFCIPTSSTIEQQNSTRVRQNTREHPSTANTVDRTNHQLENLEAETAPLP

[2] = target: Mu-type opioid receptor (Rattus norvegicus) (UniProt P33535); test: Inhibition of MOPr desensitization in wistar rat LC neuron cells assessed as reduction in the DAMGO induced desensitization incubated for 15 mins in the presence of Y-27632; type: functional, cell-based

SMILES	inhibition [1]	inhibition [2]
C[C@@H](N)[C@H]1CC[C@H](C(=O)Nc2ccncc2)CC1	inactive	
O=C(O)c1ccc(-c2c[nH]c3ncc(-c4ccccc4)cc23)cc1C1CCCC1		inactive
